In patent publication US20250074911A1, “MACROCYCLIC BTK INHIBITORS” (Crossfire Oncology Holding B.V., priority 2021, published 2025):
Where “and” joins values, the source holds several entries; their conditions need not be identical. Equal entries are not always repeated.

How the values were obtained:
BTK C481S = BTK C481S (Homo sapiens (Human), UniProt Q06187, C481S); test: Binding kinetics measurements (Surface Plasmon Resonance) on BTK C481S; settings: for Kd: binding affinity by Surface Plasmon Resonance (SPR); for Tau (h) BTK C418S (Act): target residence time for BTK C481S, SPR; for target residence time on BTK C481 mutants: result in words
Sequence of BTK C481S (Q06187 whole entry C481S): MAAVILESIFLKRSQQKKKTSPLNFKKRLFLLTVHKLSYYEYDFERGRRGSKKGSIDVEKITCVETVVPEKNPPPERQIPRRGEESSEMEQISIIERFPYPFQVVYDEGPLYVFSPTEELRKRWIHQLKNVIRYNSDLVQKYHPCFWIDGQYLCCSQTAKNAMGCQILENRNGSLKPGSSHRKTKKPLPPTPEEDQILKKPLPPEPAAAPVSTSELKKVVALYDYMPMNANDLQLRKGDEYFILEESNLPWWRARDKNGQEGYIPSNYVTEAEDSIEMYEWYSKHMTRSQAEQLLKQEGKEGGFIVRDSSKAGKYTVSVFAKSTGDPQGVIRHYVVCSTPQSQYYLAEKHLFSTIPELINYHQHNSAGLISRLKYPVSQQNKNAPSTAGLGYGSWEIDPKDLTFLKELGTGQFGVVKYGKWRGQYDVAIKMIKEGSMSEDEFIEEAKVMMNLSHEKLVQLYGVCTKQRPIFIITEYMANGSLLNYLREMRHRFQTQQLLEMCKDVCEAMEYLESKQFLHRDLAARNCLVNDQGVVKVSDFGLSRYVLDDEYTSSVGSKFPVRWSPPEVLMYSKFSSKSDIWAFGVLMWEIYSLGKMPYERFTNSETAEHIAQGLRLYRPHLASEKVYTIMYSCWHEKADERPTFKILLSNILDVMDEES
Description: (§1) Binding kinetics measurements on wt-BTK, BTK […], BTK […], BTK […] and BTK […] (Surface Plasmon Resonance) Streptavidin-coated chips (Cat. No. BR100531), disposables and maintenance kits for Biacore were purchased from Cytiva (Eindhoven, The Netherlands). […] Remaining streptavidin was blocked with biocytin. Immobilization was performed at 4° C. Subsequent assay steps were conducted at 22° C. After changing buffer to Biacore buffer with 1% (v/v) dimethylsulfoxide (DMSO), a pre-run was performed for a period of at least 30 min at a flow rate of 30 μl/min to obtain a stable surface. The kinetic constants of the compounds were determined with single cycle kinetics with five consecutive injections with an increasing compound concentration with ranges of 3.16-316 nM. […] To circumvent problems of mass transport limitation, a flow rate of 30 μl/min was used. A blank run with the same conditions was performed before the compound was injected. The SPR sensorgrams were analyzed with Biacore Evaluation Software by using a method of double referencing. First the reference channel was subtracted from the channel containing immobilized protein. Subsequently, the reference curve obtained with buffer injections was subtracted. […] Compounds that bound according to an induced fit model were fitted with a two-state reaction model. The kinetic constants (ka, […], KD) of duplicates were geometrically averaged. […] Target residence for an induced fit model was calculated as described (Tummino and Copeland, 2008).

BTK T474I = BTK T474I (Homo sapiens (Human), UniProt Q06187, T474I); test: Binding kinetics measurements (Surface Plasmon Resonance) on BTK T474I; settings: for Kd: binding affinity by Surface Plasmon Resonance (SPR); for target residence time on BTK T474 mutants (T474I): result in words; for Tau (h) BTK T474I (Act): target residence time, SPR
Sequence of BTK T474I (Q06187 whole entry T474I): as the sequence (Q06187 whole entry C481S) above, with T474I, S481C counted along it
Method in brief: (§2)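 Kinetic constants came from double-referenced SPR sensorgrams of five ascending compound injections (3.16-316 nM, single cycle) over streptavidin-captured enzyme. Flow was 30 μl/min at 22° C with 1% DMSO. Duplicate ka, kd and KD were geometrically averaged.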

wt-BTK = wt-BTK (Homo sapiens (Human), UniProt Q06187); test: Binding kinetics measurements (Surface Plasmon Resonance) on wt-BTK; settings: for Kd: binding affinity by Surface Plasmon Resonance (SPR); for Tau (h) wt-BTK (Act): target residence time, SPR; for target residence time on wild-type-BTK: result in words
Sequence of wt-BTK (Q06187 whole entry): as the sequence (Q06187 whole entry C481S) above, with S481C counted along it
Method in brief: as §2

BTK T316A = BTK T316A (Homo sapiens (Human), UniProt Q06187, T316A); test: Binding kinetics measurements (Surface Plasmon Resonance) on BTK T316A; settings: for Kd: binding affinity by Surface Plasmon Resonance (SPR); for Tau (h) BTK T316A (Act): target residence time, SPR; for target residence time on BTK T316 mutants: result in words
Sequence of BTK T316A (Q06187 whole entry T316A): as the sequence (Q06187 whole entry C481S) above, with T316A, S481C counted along it
Description: as §1

BTK T474S = BTK T474S (Homo sapiens (Human), UniProt Q06187, T474S); test: Binding kinetics measurements (Surface Plasmon Resonance) on BTK T474S; settings: for Kd: binding affinity by Surface Plasmon Resonance (SPR); for residence time: SPR binding kinetics, BTK T474S, read-out: Tau (h) BTK T474S (Act), target residence time (converted); for target residence time on BTK T474 mutants (T474S): result in words
Sequence of BTK T474S (Q06187 whole entry T474S): as the sequence (Q06187 whole entry C481S) above, with T474S, S481C counted along it
Description: as §1

[1] = test system: wt-TMD8 diffuse large B-cell lymphoma cells; test: Cell proliferation assay wt-TMD8 (ATPlite, 120 hours); assay type: cell-based; settings: B-cell; wt-TMD8 cells, 120 hours, ATPlite; read-out: IC50 wt-TMD8
Method in brief: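 Readout is percentage growth from ATPlite 1Step luminescence after 5 days (120 h) compound treatment of wt-TMD8 lymphoma cells (1600/well, RPMI-1640 + 10% FBS). Time-zero signal separates growth inhibition from cell kill; 0.3% DMSO wells without compound define maximal growth.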

[2] = test system: wt-REC-1 mantle cell lymphoma cells; test: Cell proliferation assay wt-REC-1 (ATPlite, 72 hours); assay type: cell-based; settings: 72 h; read-out: IC50 wt-REC-1
Method in brief: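 Luminescent viability read over 72 h, start-of-incubation signal recorded separately to separate growth from cell death. Percentage growth referenced to compound-free 0.3% DMSO wells; IC50 from 4-parameter logistic fit.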

REC-1 T474I cell lines = test: Cell proliferation assay REC-1 BTK T474I knock-in cells (ATPlite, 72 hours); assay type: cell-based; settings: Homo sapiens, Rec1; 72 hours; read-out: IC50 REC-1 T474I
Method in brief: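 REC-1 cells carrying CRISPR knock-in mutant BTK, single-cell cloned and sequence-confirmed, were exposed to compound for 72 h and read by ATPlite luminescence. Percentage growth was calculated against the signal at the start of incubation and against untreated 0.3% DMSO wells as maximum growth.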

[3] = target: full-length wt-BTK enzyme (Homo sapiens (Human), UniProt Q06187); test: Biochemical kinase assay wt-BTK (IMAP)
Sequence of full-length wt-BTK enzyme (Q06187 whole entry): as the sequence (Q06187 whole entry C481S) above, with S481C counted along it
Method in brief: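 Compound and enzyme (final 1.2 nM) were pre-incubated for 1 h at RT, after which the reaction was started with 4 μM ATP plus 50 nM fluorescein-MBP substrate peptide. After 2 h in the dark, the IMAP progressive binding reagent stopped the reaction, and phosphorylation was read by fluorescence polarization.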

[4] = target: full-length BTK C481S enzyme (Homo sapiens (Human), UniProt Q06187, C481S); test: Biochemical kinase assay BTK C481S (IMAP)
Sequence of full-length BTK C481S enzyme (Q06187 whole entry C481S): as the sequence (Q06187 whole entry C481S) above
Method in brief: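 IC50 values come from IMAP fluorescence polarization after quenching with progressive binding solution. The reaction ran 2 h at room temperature in the dark with 1.2 nM full-length C481S enzyme, 7 μM ATP and 50 nM fluorescein-labelled MBP-derived peptide, following a 1 h dark pre-incubation of compound with enzyme.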

Kd (BTK C481S) [nM] | Kd (BTK T474I) | Kd (wt-BTK) [nM] | Kd (BTK T316A) [nM] | Kd (BTK T474S) [nM] | Tau (h) BTK C418S (Act) (BTK C481S) [h] | IC50 [1] [nM] | IC50 [2] [nM] | Tau (h) wt-BTK (Act) (wt-BTK) [h] | Tau (h) BTK T316A (Act) (BTK T316A) [h] | residence time (BTK T474S) [h] | target residence time on BTK C481 mutants (BTK C481S) | target residence time on BTK T474 mutants (T474I) (BTK T474I) | Tau (h) BTK T474I (Act) (BTK T474I) [h] | target residence time on wild-type-BTK (wt-BTK) | target residence time on BTK T316 mutants (BTK T316A) | target residence time on BTK T474 mutants (T474S) (BTK T474S) | IC50 [3] [nM] | IC50 [4] [nM] | Structure (SMILES) | IC50 (REC-1 T474I cell lines) [nM]
< 5 | < 2 nM | < 5 | < 5 | < 3 | – | – | – | – | – | – | – | – | – | – | – | – | – | – | Nc1ncc2c3c1c(-c1ccc(C(=O)Nc4ccccn4)cc1)nn3[C@@H]1CCC[C@H](C1)NC(=O)CCCCC/C=C/2 [Example 24] | –
< 5 | 10 to 50 nM and < 5 nM | < 5 | < 5 | < 3 | 5.76 | < 100 | < 100 | 3.88 | 2.12 | 2.69 | – | – | – | – | – | – | – | – | CC1NC/C=C/c2cnc(N)c3c(-c4ccc(C(=O)Nc5cc(C(F)(F)F)ccn5)cc4)nn(c23)[C@@H]2CCC[C@H](C2)NC1=O (single isomer, unassigned) [Example 146] | 100 to 500
– | – | – | – | – | 0.08 | – | – | 0.29 | 0.03 | 0.93 | short target residence times | short target residence times | 0.19 | short target residence times | short target residence times | short target residence times | – | – | C[C@H]1CN(C2COC2)CCN1c1ccc(Nc2cc(-c3ccnc(N4CCn5c(cc6c5CC(C)(C)C6)C4=O)c3CO)cn(C)c2=O)nc1 [fenebrutinib, reference compound] | –
< 5 | – | – | – | – | 4.68 | < 100 | < 100 | – | 3.51 | 1.14 | – | – | 1.31 | – | – | – | < 5 | < 5 | C[C@@H]1CC(=O)N[C@@H]2CC[C@H](C2)n2nc(-c3ccc(C(=O)Nc4cc(C(F)(F)F)ccn4)cc3)c3c(N)ncc(c32)/C=C/CCN1 [Example 175] | 100 to 500
< 5 | 10 to 50 nM and < 5 nM | < 5 | < 5 | < 3 | 5.98 | – | 100 to 1000 | 4.35 | 3.58 | 4.46 | – | – | 1.14 | – | – | – | < 5 | < 5 | Nc1ncc2c3c1c(-c1ccc(C(=O)Nc4cc(C(F)(F)F)ccn4)cc1)nn3[C@@H]1CCC[C@H](C1)NC(=O)CCCC/C=C\C2 [Example 98b] | –
– | – | – | – | – | 0.12 | – | – | 0.18 | 0.05 | 0.07 | short target residence times | short target residence times | 0.01 | short target residence times | short target residence times | short target residence times | – | – | NC(=O)[C@H]1CCN(c2ncnc(N)c2F)C[C@@H]1N1CCC[C@@H](Nc2cc(Cl)cc(C(F)(F)F)c2)C1=O [vecabrutinib, reference compound] | –
< 5 | < 2 nM | < 5 | < 5 | < 3 | – | – | – | – | – | – | – | – | – | – | – | – | < 5 | < 5 | Nc1ncc2n3c(nc(-c4ccc(C(=O)Nc5cc(C(F)(F)F)ccn5)cc4)c13)[C@@H]1CCC[C@H](C1)NC(=O)CCC/C=C\C2 [Example 133b] | –
< 5 | 10 to 50 nM and < 5 nM | < 5 | < 5 | < 3 | 6.25 | – | 100 to 1000 | 5.09 | 2.96 | 3.89 | – | – | – | – | – | – | < 5 | < 5 | Nc1ncc2c3c1c(-c1ccc(C(=O)Nc4cc(C(F)(F)F)ccn4)cc1)nn3[C@@H]1CCC[C@H](C1)C(=O)NCCCCCCC2 [Example 115] | 100 to 500
< 5 | < 2 nM | < 5 | < 5 | < 3 | – | < 100 | < 100 | – | – | 4.37 | – | – | – | – | – | – | – | – | C[C@@H]1CCn2nc(-c3ccc(C(=O)Nc4cc(C(F)(F)F)ccn4)cc3)c3c(N)ncc(c32)/C=C/CCCCC(=O)N1 [Example 54] | 100 to 500
< 5 | < 2 nM | < 5 | < 5 | < 3 | 7.19 | < 100 | < 100 | 4.95 | 1.85 | 2.48 | – | – | – | – | – | – | < 5 | < 5 | C[C@@H]1CCn2nc(-c3ccc(C(=O)Nc4cc(C(F)(F)F)ccn4)cc3)c3c(N)ncc(c32)/C=C/CSCC(=O)N1 [Example 61] | –
– | < 2 nM | < 5 | < 5 | < 3 | – | < 100 | < 100 | 6.49 | 2.16 | 8.38 | – | – | 0.85 | – | – | – | < 5 | < 5 | C[C@@H]1CC(=O)N[C@@H]2CCC[C@H](C2)n2nc(-c3ccc(C(=O)Nc4cc(C(F)(F)F)ccn4)cc3)c3c(N)ncc(c32)/C=C/CCN1C [Example 40] | < 100
< 5 | < 2 nM | < 5 | < 5 | < 3 | 3.96 | – | 100 to 1000 | 2.75 | 1.58 | 3.04 | – | – | – | – | – | – | < 5 | < 5 | Nc1ncc2n3c(nc(-c4ccc(C(=O)Nc5cc(C(F)(F)F)ccn5)cc4)c13)[C@@H]1CCC[C@H](C1)NC(=O)CCC/C=C/2 [Example 132] | 500 to 10000
– | – | – | – | – | 7.08 | < 100 | < 100 | 4.39 | 1.96 | 3.12 | – | – | – | – | – | – | – | – | Nc1ncc2n3c(nc(-c4ccc(C(=O)Nc5cc(C(F)(F)F)ccn5)cc4)c13)C1CCC[C@H](C1)NC(=O)CCC/C=C\C2 [Example 133b] | –
< 5 | < 2 nM | < 5 | < 5 | < 3 | 3.83 | < 100 | < 100 | 2.86 | 2.22 | 1.64 | – | – | – | – | – | – | < 5 | < 5 | Nc1ncc2n3c(nc(-c4ccc(C(=O)Nc5cc(C(F)(F)F)ccn5)cc4)c13)[C@@H]1CCC[C@H](C1)NC(=O)CCCC/C=C/2 [Example 130] | –
